Converted amounts (≈) assume the structure as drawn. Where two headings read alike, the source gives them in different places.
What was measured:
HUVEC cells = assay: Angiogenesis study, tube formation in HUVEC; type: cell-based; conditions: 100 nM of drug treatment
Description: Angiogenesis studies were performed using HUVEC cells (see FIGS. 6A-6C). Tube formation in HUVEC in presence of 100 nM of drug treatment.

E. Coli = assay: E. coli minimum inhibitory concentration; type: cell-based
Text: (§1) Further cytotoxicity studies show potential for efficacy as […]. Table 2, below, provides IC50 data relating to both a cancer cell line and E. coli minimum inhibitory concentration (MIC).

bEnd.3 cells = assay: Blood-brain barrier membrane permeability in in-vitro monolayer of bEnd.3 cells; type: in vitro ADME; conditions: in 30 minutes
Text: FIG. 4 provides permeability data for the blood-brain barrier (BBB) of various compounds, including gliotoxin and Formula 1b. Membrane permeability increases linearly as a function of time.

κ (KOR) opioid receptor = κ (KOR) opioid receptor (Homo sapiens, UniProt P41145); assay: CNS receptor inhibition, Kappa opioid receptor; type: binding
Description: (§2) In an illustrative embodiment of the present invention, gliotoxin and Formula 1b, were evaluated for activity of various receptors. Turning to Table 1, inhibitory data is provided for various receptors found in the CNS, including H1 and opioid receptors μ (MOR), […], and κ (KOR). Inhibition data is provided as inhibitor constant, Ki, is the concentration required to produce half-maximum inhibition. This quantitative measure indicates how much of a particular drug or other substance (inhibitor) is needed to inhibit a given biological process (or component of a process, i.e. an enzyme, cell, cell receptor or microorganism) by half. The values are typically expressed as molar (micro- and nano-) concentrations.

μ (MOR) opioid receptor = μ (MOR) opioid receptor (Homo sapiens, UniProt P35372); assay: CNS receptor inhibition, Mu opioid receptor; type: binding
Description: as §2

σ (DOR) opioid receptor = σ (DOR) opioid receptor (Homo sapiens, UniProt P41143); assay: CNS receptor inhibition, Delta opioid receptor; type: binding
Description: as §2

MDA-MB-231 = assay: Cytotoxicity in cancer cell line MDA-MB-231; type: cell-based
Text: as §1

CNS Receptor = CNS Receptor binding (profile)
Description: as §2

H1 receptor = H1 receptor (Homo sapiens, UniProt P35367); assay: CNS receptor inhibition, H1 receptor; type: binding
Description: as §2

Chain of H1 receptor (P35367 whole entry): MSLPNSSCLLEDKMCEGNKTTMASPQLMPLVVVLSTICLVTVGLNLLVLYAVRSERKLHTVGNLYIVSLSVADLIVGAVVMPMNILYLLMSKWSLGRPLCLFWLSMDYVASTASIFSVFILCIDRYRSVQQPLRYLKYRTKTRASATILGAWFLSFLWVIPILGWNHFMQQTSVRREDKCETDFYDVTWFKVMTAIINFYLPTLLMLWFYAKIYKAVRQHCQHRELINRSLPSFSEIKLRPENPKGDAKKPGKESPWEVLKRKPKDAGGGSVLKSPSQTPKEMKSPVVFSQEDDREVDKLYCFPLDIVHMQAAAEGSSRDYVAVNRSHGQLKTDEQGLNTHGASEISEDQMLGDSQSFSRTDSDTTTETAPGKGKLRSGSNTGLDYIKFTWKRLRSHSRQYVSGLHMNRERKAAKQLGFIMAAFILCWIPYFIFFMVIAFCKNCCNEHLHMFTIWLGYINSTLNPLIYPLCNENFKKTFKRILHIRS
Chain of μ (MOR) opioid receptor (P35372 whole entry): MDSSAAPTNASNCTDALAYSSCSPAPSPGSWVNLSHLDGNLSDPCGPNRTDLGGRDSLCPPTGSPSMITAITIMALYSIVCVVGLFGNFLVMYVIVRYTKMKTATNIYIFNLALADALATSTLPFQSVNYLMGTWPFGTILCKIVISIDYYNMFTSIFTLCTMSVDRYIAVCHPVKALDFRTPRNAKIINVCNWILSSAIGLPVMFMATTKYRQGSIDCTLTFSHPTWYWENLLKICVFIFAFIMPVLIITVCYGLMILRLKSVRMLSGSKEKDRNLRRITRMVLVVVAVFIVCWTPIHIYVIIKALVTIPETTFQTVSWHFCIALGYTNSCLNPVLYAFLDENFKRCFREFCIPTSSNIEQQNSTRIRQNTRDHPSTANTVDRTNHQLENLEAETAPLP
Chain of κ (KOR) opioid receptor (P41145 whole entry): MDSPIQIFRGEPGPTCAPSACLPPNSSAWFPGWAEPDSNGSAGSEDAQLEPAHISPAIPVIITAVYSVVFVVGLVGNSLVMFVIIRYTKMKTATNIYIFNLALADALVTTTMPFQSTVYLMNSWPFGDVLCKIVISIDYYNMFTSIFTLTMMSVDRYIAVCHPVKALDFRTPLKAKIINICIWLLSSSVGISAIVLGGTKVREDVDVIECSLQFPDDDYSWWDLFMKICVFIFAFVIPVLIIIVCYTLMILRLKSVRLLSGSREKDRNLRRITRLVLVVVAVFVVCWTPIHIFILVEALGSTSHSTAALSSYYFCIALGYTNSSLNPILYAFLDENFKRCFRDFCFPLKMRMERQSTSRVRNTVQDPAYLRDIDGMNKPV
Chain of σ (DOR) opioid receptor (P41143 whole entry): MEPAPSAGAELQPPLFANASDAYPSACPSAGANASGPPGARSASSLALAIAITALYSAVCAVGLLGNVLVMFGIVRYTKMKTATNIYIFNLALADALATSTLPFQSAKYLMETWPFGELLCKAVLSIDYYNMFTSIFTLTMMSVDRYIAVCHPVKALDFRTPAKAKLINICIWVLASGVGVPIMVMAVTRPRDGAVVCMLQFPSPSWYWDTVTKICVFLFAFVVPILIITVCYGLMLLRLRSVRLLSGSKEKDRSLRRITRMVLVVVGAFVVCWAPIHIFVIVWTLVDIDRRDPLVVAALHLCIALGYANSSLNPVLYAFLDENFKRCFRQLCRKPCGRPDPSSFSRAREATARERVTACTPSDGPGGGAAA

SMILES | Inhibition of tube formation (HUVEC cells) | E. Coli MIC (E. Coli) | ability to cross the BBB (bEnd.3 cells) [%] | Inhibition (%) (κ (KOR) opioid receptor) | Inhibition (%) (μ (MOR) opioid receptor) | Inhibition (%) (σ (DOR) opioid receptor) | IC50 (MDA-MB-231) [nM] | CNS Receptor binding (CNS Receptor) | MIC (E. Coli; Escherichia coli) [µg/mL] | CNS activity, inhibition of the H1 receptor (FIG. 7) (H1 receptor) | Inhibition (%) (H1 receptor; H1) | IC50 (MDA-MB-231; Homo sapiens) [nM]
CCc1cccc2c1N1C(=O)CC(C)C(=O)C1C2 (stereo not drawn) [Formula 1b, 4-ethyl-8-methyl-7,8,9a,10-tetrahydropyrido[1,2-α]indole-6,9-dione] | no inhibition was observed | Not Active | 80 | 99.3 | 97.8 | 97.4 | > 100000 | Opioid Antagonist | – | – | – | –
CN1C(=O)[C@]23CC4=CC=C[C@H](O)[C@H]4N2C(=O)[C@@]1(CO)SS3 [Gliotoxin, reference compound] | Inhibition of tube formation was observed | – | – | – | – | – | – | H1 Receptor Antagonist | 32 (≈ 98 µM) | partial inhibition | 61 | 1400

Reference: patent US10787456B2 (priority 2018, dated 2020)
